Legend:
[1] = The drug is tested on Bifidobacterium longum subsp. Infantis strain: CCUG52486 for biotransformation. The drug concentrations were measured before and after a 12-h incubation by liquid-chromatography-coupled mass spectrometry (LC–MS); conditions: 2 µM
[2] = The drug is tested on Bifidobacterium ruminantium strain: fecal isolate for biotransformation. The drug concentrations were measured before and after a 12-h incubation by liquid-chromatography-coupled mass spectrometry (LC–MS); conditions: 2 µM
[3] = The drug is tested on Collinsella intestinalis strain: DSM13280 for biotransformation. The drug concentrations were measured before and after a 12-h incubation by liquid-chromatography-coupled mass spectrometry (LC–MS); conditions: 2 µM
[4] = The drug is tested on Bacteroides caccae strain: ATCC43185 for biotransformation. The drug concentrations were measured before and after a 12-h incubation by liquid-chromatography-coupled mass spectrometry (LC–MS); conditions: 2 µM
[5] = The drug is tested on Bacteroides finegoldii strain: DSM17565 for biotransformation. The drug concentrations were measured before and after a 12-h incubation by liquid-chromatography-coupled mass spectrometry (LC–MS); conditions: 2 µM
[6] = The drug is tested on Bacteroides ovatus strain: ATCC8483 for biotransformation. The drug concentrations were measured before and after a 12-h incubation by liquid-chromatography-coupled mass spectrometry (LC–MS); conditions: 2 µM
[7] = The drug is tested on Bacteroides sp. WH2 strain: WH2 for biotransformation. The drug concentrations were measured before and after a 12-h incubation by liquid-chromatography-coupled mass spectrometry (LC–MS); conditions: bacteroides sp. wh2, 12 h, 2 µM
[8] = The drug is tested on Odoribacter splanchnicus strain: fecal isolate for biotransformation. The drug concentrations were measured before and after a 12-h incubation by liquid-chromatography-coupled mass spectrometry (LC–MS); conditions: 2 µM
[9] = The drug is tested on Anaerococcus hydrogenalis strain: DSM7454 for biotransformation. The drug concentrations were measured before and after a 12-h incubation by liquid-chromatography-coupled mass spectrometry (LC–MS); conditions: 2 µM
[10] = The drug is tested on Anaerotruncus colihominis strain: DSM17241 for biotransformation. The drug concentrations were measured before and after a 12-h incubation by liquid-chromatography-coupled mass spectrometry (LC–MS); conditions: 2 µM
[11] = The drug is tested on Clostridium sporogenes strain: ATCC15579 for biotransformation. The drug concentrations were measured before and after a 12-h incubation by liquid-chromatography-coupled mass spectrometry (LC–MS); conditions: 2 µM
[12] = The drug is tested on Clostridium symbiosum strain: ATCC14940 for biotransformation. The drug concentrations were measured before and after a 12-h incubation by liquid-chromatography-coupled mass spectrometry (LC–MS); conditions: 2 µM
[13] = The drug is tested on Coprococcus comes strain: ATCC27758 for biotransformation. The drug concentrations were measured before and after a 12-h incubation by liquid-chromatography-coupled mass spectrometry (LC–MS); type: ADME; set-up: dose 2 uM, timepoint 0 vs 12 hours; conditions: 2 µM
[14] = The drug is tested on Dorea formicigenerans strain: ATCC27755 for biotransformation. The drug concentrations were measured before and after a 12-h incubation by liquid-chromatography-coupled mass spectrometry (LC–MS); conditions: 2 µM
[15] = The drug is tested on Eubacterium hallii strain: DSM3353 for biotransformation. The drug concentrations were measured before and after a 12-h incubation by liquid-chromatography-coupled mass spectrometry (LC–MS); conditions: anaerobutyricum hallii, 2 µM
[16] = The drug is tested on Eubacterium rectale strain: ATCC33656 for biotransformation. The drug concentrations were measured before and after a 12-h incubation by liquid-chromatography-coupled mass spectrometry (LC–MS); conditions: agathobacter rectalis, 2 µM
[17] = The drug is tested on Eubacterium ventriosum strain: ATCC27560 for biotransformation. The drug concentrations were measured before and after a 12-h incubation by liquid-chromatography-coupled mass spectrometry (LC–MS); type: ADME; set-up: dose 2 uM, timepoint 0 vs 12 hours; conditions: 2 µM
[18] = The drug is tested on Ruminococcus gnavus strain: ATCC29149 for biotransformation. The drug concentrations were measured before and after a 12-h incubation by liquid-chromatography-coupled mass spectrometry (LC–MS); conditions: mediterraneibacter gnavus, 2 µM
[19] = The drug is tested on Ruminococcus lactaris strain: ATCC29176 for biotransformation. The drug concentrations were measured before and after a 12-h incubation by liquid-chromatography-coupled mass spectrometry (LC–MS); conditions: 2 µM
[20] = The drug is tested on Ruminococcus torques strain: ATCC27756 for biotransformation. The drug concentrations were measured before and after a 12-h incubation by liquid-chromatography-coupled mass spectrometry (LC–MS); type: ADME; set-up: dose 2 uM, timepoint 0 vs 12 hours; conditions: 2 µM
[21] = The drug is tested on Subdoligranulum variabile strain: DSM15176 for biotransformation. The drug concentrations were measured before and after a 12-h incubation by liquid-chromatography-coupled mass spectrometry (LC–MS); conditions: 2 µM
[22] = The drug is tested on Enterobacter cancerogenus strain: ATCC35316 for biotransformation. The drug concentrations were measured before and after a 12-h incubation by liquid-chromatography-coupled mass spectrometry (LC–MS); conditions: 2 µM
[23] = The drug is tested on Escherichia coli strain: BW25113 for biotransformation. The drug concentrations were measured before and after a 12-h incubation by liquid-chromatography-coupled mass spectrometry (LC–MS); conditions: 2 µM
[24] = The drug is tested on Providencia rettgeri strain: DSM1131 for biotransformation. The drug concentrations were measured before and after a 12-h incubation by liquid-chromatography-coupled mass spectrometry (LC–MS); type: ADME; set-up: dose 2 uM, timepoint 0 vs 12 hours; conditions: 2 µM
[25] = The drug is tested on Providencia stuartii strain: ATCC25827 for biotransformation. The drug concentrations were measured before and after a 12-h incubation by liquid-chromatography-coupled mass spectrometry (LC–MS); conditions: 2 µM
[26] = bacteroides intestinalis, 12 h, 2 µM
Description: The drug is tested on Bacteroides intestinalis strain: DSM17393 for biotransformation. The drug concentrations were measured before and after a 12-h incubation by liquid-chromatography-coupled mass spectrometry (LC–MS)

[27] = bacteroides thetaiotaomicron, 12 h, 2 µM
Description: The drug is tested on Bacteroides thetaiotaomicron strain: 3731 for biotransformation. The drug concentrations were measured before and after a 12-h incubation by liquid-chromatography-coupled mass spectrometry (LC–MS)

[28] = parabacteroides johnsonii, 12 h, 2 µM
Description: The drug is tested on Parabacteroides johnsonii strain: DSM18315 for biotransformation. The drug concentrations were measured before and after a 12-h incubation by liquid-chromatography-coupled mass spectrometry (LC–MS)

[29] = anaerostipes sp., 12 h, 2 µM
Description: The drug is tested on Anaerostipes sp. strain: fecal isolate for biotransformation. The drug concentrations were measured before and after a 12-h incubation by liquid-chromatography-coupled mass spectrometry (LC–MS)

[30] = enterocloster bolteae, 12 h, 2 µM
Description: The drug is tested on Clostridium bolteae strain: ATCCBAA-613 for biotransformation. The drug concentrations were measured before and after a 12-h incubation by liquid-chromatography-coupled mass spectrometry (LC–MS)

[31] = limosilactobacillus reuteri cf48-3a, 12 h, 2 µM
Description: The drug is tested on Lactobacillus reuteri CF48-3A strain: BEI HM-102 for biotransformation. The drug concentrations were measured before and after a 12-h incubation by liquid-chromatography-coupled mass spectrometry (LC–MS)

[32] = akkermansia muciniphila, 12 h, 2 µM
Description: The drug is tested on Akkermansia muciniphila strain: ATCC BAA-835 for biotransformation. The drug concentrations were measured before and after a 12-h incubation by liquid-chromatography-coupled mass spectrometry (LC–MS)

[33] = The drug is tested on Bifidobacterium breve strain: DSM20213 for biotransformation. The drug concentrations were measured before and after a 12-h incubation by liquid-chromatography-coupled mass spectrometry (LC–MS); conditions: 2 µM
[34] = The drug is tested on Collinsella aerofaciens strain: ATCC25986 for biotransformation. The drug concentrations were measured before and after a 12-h incubation by liquid-chromatography-coupled mass spectrometry (LC–MS); conditions: 2 µM
[35] = The drug is tested on Alistipes indistinctus strain: DSM22520 for biotransformation. The drug concentrations were measured before and after a 12-h incubation by liquid-chromatography-coupled mass spectrometry (LC–MS); conditions: 2 µM
[36] = The drug is tested on Bacteroides dorei strain: DSM17855 for biotransformation. The drug concentrations were measured before and after a 12-h incubation by liquid-chromatography-coupled mass spectrometry (LC–MS); conditions: phocaeicola dorei, 2 µM
[37] = The drug is tested on Bacteroides fragilis strain: HMW610 for biotransformation. The drug concentrations were measured before and after a 12-h incubation by liquid-chromatography-coupled mass spectrometry (LC–MS); conditions: 2 µM
[38] = The drug is tested on Bacteroides fragilis strain: ATCC43859 for biotransformation. The drug concentrations were measured before and after a 12-h incubation by liquid-chromatography-coupled mass spectrometry (LC–MS); conditions: 2 µM
[39] = The drug is tested on Bacteroides pectinophilus strain: ATCC43243 for biotransformation. The drug concentrations were measured before and after a 12-h incubation by liquid-chromatography-coupled mass spectrometry (LC–MS); conditions: 2 µM
[40] = The drug is tested on Bacteroides vulgatus strain: ATCC8482 for biotransformation. The drug concentrations were measured before and after a 12-h incubation by liquid-chromatography-coupled mass spectrometry (LC–MS); conditions: phocaeicola vulgatus, 2 µM
[41] = The drug is tested on Bacteroides xylanisolvens strain: DSM18836 for biotransformation. The drug concentrations were measured before and after a 12-h incubation by liquid-chromatography-coupled mass spectrometry (LC–MS); conditions: 2 µM
[42] = The drug is tested on Parabacteroides merdae strain: ATCC43184 for biotransformation. The drug concentrations were measured before and after a 12-h incubation by liquid-chromatography-coupled mass spectrometry (LC–MS); conditions: 2 µM
[43] = The drug is tested on Blautia luti strain: DSM14534 for biotransformation. The drug concentrations were measured before and after a 12-h incubation by liquid-chromatography-coupled mass spectrometry (LC–MS); type: ADME; set-up: dose 2 uM, timepoint 0 vs 12 hours; conditions: 2 µM
[44] = The drug is tested on Clostridium asparagiforme strain: DSM15981 for biotransformation. The drug concentrations were measured before and after a 12-h incubation by liquid-chromatography-coupled mass spectrometry (LC–MS); type: ADME; set-up: dose 2 uM, timepoint 0 vs 12 hours; conditions: enterocloster asparagiformis, 2 µM
[45] = The drug is tested on Clostridium ramosum strain: DSM1402 for biotransformation. The drug concentrations were measured before and after a 12-h incubation by liquid-chromatography-coupled mass spectrometry (LC–MS); conditions: thomasclavelia ramosa, 2 µM
[46] = The drug is tested on Clostridium scindens strain: ATCC35704 for biotransformation. The drug concentrations were measured before and after a 12-h incubation by liquid-chromatography-coupled mass spectrometry (LC–MS); conditions: 2 µM
[47] = The drug is tested on Enterococcus faecalis strain: V583 for biotransformation. The drug concentrations were measured before and after a 12-h incubation by liquid-chromatography-coupled mass spectrometry (LC–MS); conditions: 2 µM
[48] = The drug is tested on Edwardsiella tarda strain: ATCC23685 for biotransformation. The drug concentrations were measured before and after a 12-h incubation by liquid-chromatography-coupled mass spectrometry (LC–MS); conditions: 2 µM
[49] = bifidobacterium adolescentis, 12 h, 2 µM
Description: The drug is tested on Bifidobacterium adolescentis strain: ATCC 15703 for biotransformation. The drug concentrations were measured before and after a 12-h incubation by liquid-chromatography-coupled mass spectrometry (LC–MS)

[50] = bacteroides stercoris, 12 h, 2 µM
Description: The drug is tested on Bacteroides stercoris strain: ATCC43183 for biotransformation. The drug concentrations were measured before and after a 12-h incubation by liquid-chromatography-coupled mass spectrometry (LC–MS)

[51] = parabacteroides distasonis, 12 h, 2 µM
Description: The drug is tested on Parabacteroides distasonis strain: ATCC8503 for biotransformation. The drug concentrations were measured before and after a 12-h incubation by liquid-chromatography-coupled mass spectrometry (LC–MS)

[52] = segatella copri, 12 h, 2 µM
Description: The drug is tested on Prevotella copri strain: DSM18205 for biotransformation. The drug concentrations were measured before and after a 12-h incubation by liquid-chromatography-coupled mass spectrometry (LC–MS)

CCCCCOC(=O)Nc1nc(=O)n([C@@H]2O[C@H](C)[C@@H](O)[C@H]2O)cc1F [CAPECITABINE]
Bacterial Biotransformation [1]: Compound metabolized | Bacterial Biotransformation [2]: Compound NOT metabolized | Bacterial Biotransformation [3]: Compound NOT metabolized | Bacterial Biotransformation [4]: Compound NOT metabolized | Bacterial Biotransformation [5]: Compound NOT metabolized | Bacterial Biotransformation [6]: Compound NOT metabolized | Bacterial Biotransformation [7]: Compound NOT metabolized | Bacterial Biotransformation [8]: Compound metabolized | Bacterial Biotransformation [9]: Compound NOT metabolized | Bacterial Biotransformation [10]: Compound NOT metabolized | Bacterial Biotransformation [11]: Compound NOT metabolized | Bacterial Biotransformation [12]: Compound NOT metabolized | Bacterial Biotransformation [13]: Compound NOT metabolized | Bacterial Biotransformation [14]: Compound NOT metabolized | Bacterial Biotransformation [15]: Compound NOT metabolized | Bacterial Biotransformation [16]: Compound metabolized | Bacterial Biotransformation [17]: Compound NOT metabolized | Bacterial Biotransformation [18]: Compound NOT metabolized | Bacterial Biotransformation [19]: Compound NOT metabolized | Bacterial Biotransformation [20]: Compound NOT metabolized | Bacterial Biotransformation [21]: Compound NOT metabolized | Bacterial Biotransformation [22]: Compound metabolized | Bacterial Biotransformation [23]: Compound metabolized | Bacterial Biotransformation [24]: Compound NOT metabolized | Bacterial Biotransformation [25]: Compound NOT metabolized | Bacterial Biotransformation [26]: Compound NOT metabolized | Bacterial Biotransformation [27]: Compound NOT metabolized | Bacterial Biotransformation [28]: Compound NOT metabolized | Bacterial Biotransformation [29]: Compound NOT metabolized | Bacterial Biotransformation [30]: Compound NOT metabolized | Bacterial Biotransformation [31]: Compound metabolized | Bacterial Biotransformation [32]: Compound NOT metabolized

Nc1nc(NC2CC2)c2ncn([C@H]3C=C[C@@H](CO)C3)c2n1.Nc1nc(NC2CC2)c2ncn([C@H]3C=C[C@@H](CO)C3)c2n1.O=S(=O)(O)O [ABACAVIR SULFATE]
Bacterial Biotransformation [33]: Compound NOT metabolized | Bacterial Biotransformation [1]: Compound NOT metabolized | Bacterial Biotransformation [34]: Compound NOT metabolized | Bacterial Biotransformation [3]: Compound NOT metabolized | Bacterial Biotransformation [35]: Compound NOT metabolized | Bacterial Biotransformation [4]: Compound NOT metabolized | Bacterial Biotransformation [36]: Compound NOT metabolized | Bacterial Biotransformation [37]: Compound NOT metabolized | Bacterial Biotransformation [38]: Compound NOT metabolized | Bacterial Biotransformation [39]: Compound NOT metabolized | Bacterial Biotransformation [40]: Compound NOT metabolized | Bacterial Biotransformation [41]: Compound NOT metabolized | Bacterial Biotransformation [42]: Compound NOT metabolized | Bacterial Biotransformation [9]: Compound NOT metabolized | Bacterial Biotransformation [10]: Compound NOT metabolized | Bacterial Biotransformation [43]: Compound NOT metabolized | Bacterial Biotransformation [44]: Compound NOT metabolized | Bacterial Biotransformation [45]: Compound NOT metabolized | Bacterial Biotransformation [46]: Compound NOT metabolized | Bacterial Biotransformation [12]: Compound NOT metabolized | Bacterial Biotransformation [13]: Compound NOT metabolized | Bacterial Biotransformation [14]: Compound NOT metabolized | Bacterial Biotransformation [47]: Compound NOT metabolized | Bacterial Biotransformation [17]: Compound NOT metabolized | Bacterial Biotransformation [18]: Compound NOT metabolized | Bacterial Biotransformation [20]: Compound NOT metabolized | Bacterial Biotransformation [48]: Compound NOT metabolized | Bacterial Biotransformation [22]: Compound NOT metabolized | Bacterial Biotransformation [23]: Compound NOT metabolized | Bacterial Biotransformation [25]: Compound NOT metabolized | Bacterial Biotransformation [49]: Compound NOT metabolized | Bacterial Biotransformation [50]: Compound NOT metabolized | Bacterial Biotransformation [27]: Compound NOT metabolized | Bacterial Biotransformation [51]: Compound NOT metabolized | Bacterial Biotransformation [28]: Compound NOT metabolized | Bacterial Biotransformation [52]: Compound NOT metabolized | Bacterial Biotransformation [29]: Compound NOT metabolized | Bacterial Biotransformation [30]: Compound NOT metabolized | Bacterial Biotransformation [31]: Compound NOT metabolized | Bacterial Biotransformation [32]: Compound NOT metabolized
